According to patent publication US10913727B2, “Modulators of the integrated stress pathway” (Calico Life Sciences LLC, priority 2016, dated 2021):

Test system: HEK293T cells carrying the ATF4 luciferase reporter
Assay: ATF4-Luc assay, in vitro model of Vanishing Cell White Matter Disease (VWMD)
Format: cell-based
Settings: Homo sapiens, HEK-293T, 1 μg/mL tunicamycin, 7 hours, One Glo luminescence
In short: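 Compound at 200 nM and tunicamycin at 1 μg/mL were given together for 7 h to HEK293T cells stably transduced with an ATF4 5′-UTR-driven firefly luciferase reporter. Read-out by luminescence, reported as EC50.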

| SMILES | EC50 |
| --- | --- |
| Cc1cc(C(=O)NC23CCC(NC(=O)COc4ccc(Cl)c(F)c4)(CC2)C(O)C3)sn1 (stereo not shown) [Compound 578, N-{4-[2-(4-chloro-3-fluorophenoxy)acetamido]-3-hydroxybicyclo[2.2.2]octan-1-yl}-3-methyl-1,2-thiazole-5-carboxamide] | < 50 nM |
| CS(=O)(=O)c1cccc(C(=O)NC23CC(NC(=O)COc4ccc(Cl)c(F)c4)(C2)C3)c1 [Compound 813, N-{3-[2-(4-chloro-3-fluorophenoxy)acetamido]bicyclo[1.1.1]pentan-1-yl}-3-(methanesulfonyl)benzamide] | > 2000 nM |
| O=C(COc1ccc(Cl)c(F)c1)NC12CC(NC(=O)c3cnsn3)(C1)C2 [Compound 895, N-{3-[2-(4-chloro-3-fluorophenoxy)acetamido]bicyclo[1.1.1]pentan-1-yl}-1,2,5-thiadiazole-3-carboxamide] | 250 to 1000 nM |
| Cc1oc(C2CC2)cc1C(=O)NC12CC(NC(=O)COc3ccc(Cl)c(F)c3)(C1)C2 [Compound 881, N-{3-[2-(4-chloro-3-fluorophenoxy)acetamido]bicyclo[1.1.1]pentan-1-yl}-5-cyclopropyl-2-methylfuran-3-carboxamide] | > 2000 nM |
| Cc1csc(C(=O)NC23CC(NC(=O)COc4ccc(Cl)c(F)c4)(C2)C3)c1 [Compound 875, N-{3-[2-(4-chloro-3-fluorophenoxy)acetamido]bicyclo[1.1.1]pentan-1-yl}-4-methylthiophene-2-carboxamide] | < 50 nM |
| O=C(COc1ccc(Cl)c(F)c1)NC12CC(NC(=O)c3cccc(F)c3)(C1)C2 [Compound 508, N-{3-[2-(4-chloro-3-fluorophenoxy)acetamido]bicyclo[1.1.1]pentan-1-yl}-3-fluorobenzamide] | 50 to 250 nM |
| Cc1cc(C(=O)N(C)C23CCC(NC(=O)COc4ccc(Cl)c(F)c4)(CC2)[C@@H](O)C3)on1 [Compound 706, N-{(3S)-4-[2-(4-chloro-3-fluorophenoxy)acetamido]-3-hydroxybicyclo[2.2.2]octan-1-yl}-N,3-dimethyl-1,2-oxazole-5-carboxamide] | < 50 nM |
| O=C(COc1ccc(Cl)c(F)c1)NC12CC(Nc3nccn4cnnc34)(C1)C2 [Compound 445, 2-(4-chloro-3-fluorophenoxy)-N-{3-[([1,2,4]triazolo[4,3-a]pyrazin-8-yl)amino]bicyclo[1.1.1]pentan-1-yl}acetamide] | > 2000 nM |
| Cc1cc(C(=O)NC23CC(NC(=O)COc4ccc(Cl)c(F)c4)(C2)C3)c(C)o1 [Compound 537, N-{3-[2-(4-chloro-3-fluorophenoxy)acetamido]bicyclo[1.1.1]pentan-1-yl}-2,5-dimethylfuran-3-carboxamide] | 250 to 1000 nM |
| Cc1cc(C(=O)NC23CC(NC(=O)COc4ccc(Cl)c(F)c4)(C2)C3)cnc1C [Compound 856, N-{3-[2-(4-chloro-3-fluorophenoxy)acetamido]bicyclo[1.1.1]pentan-1-yl}-5,6-dimethylpyridine-3-carboxamide] | 250 to 1000 nM |
| CCCn1ccc(C(=O)NC23CC(NC(=O)COc4ccc(Cl)c(F)c4)(C2)C3)n1 [Compound 343, N-{3-[2-(4-chloro-3-fluorophenoxy)acetamido]bicyclo[1.1.1]pentan-1-yl}-1-propyl-1H-pyrazole-3-carboxamide] | 50 to 250 nM |
| O=C(COc1ccc(Cl)c(F)c1)NC12CC(NC(=O)c3ccc(C(F)F)cn3)(C1)C2 [Compound 233, N-{3-[2-(4-chloro-3-fluorophenoxy)acetamido]bicyclo[1.1.1]pentan-1-yl}-5-(difluoromethyl)pyridine-2-carboxamide] | < 50 nM |
| O=C(COc1ccc(Cl)c(F)c1)NC12CC(NC(=O)c3cc(CO)ccn3)(C1)C2 [Compound 178, N-{3-[2-(4-chloro-3-fluorophenoxy)acetamido]bicyclo[1.1.1]pentan-1-yl}-4-(hydroxymethyl)pyridine-2-carboxamide] | 50 to 250 nM |
| COC1CN(c2ccnc(C(=O)NC34CC(NC(=O)COc5ccc(Cl)c(F)c5)(C3)C4)c2)C1 [Compound 190, N-{3-[2-(4-chloro-3-fluorophenoxy)acetamido]bicyclo[1.1.1]pentan-1-yl}-4-(3-methoxyazetidin-1-yl)pyridine-2-carboxamide] | 250 to 1000 nM |
| O=C(COc1ccc(Cl)c(F)c1)NC12CC(NC(=O)c3ccc(Cl)cn3)(C1)C2 [Compound 686, 5-chloro-N-{3-[2-(4-chloro-3-fluorophenoxy)acetamido]bicyclo[1.1.1]pentan-1-yl}pyridine-2-carboxamide] | < 50 nM |
| CCc1noc(C)c1C(=O)NC12CC(NC(=O)COc3ccc(Cl)c(F)c3)(C1)C2 [Compound 824, N-{3-[2-(4-chloro-3-fluorophenoxy)acetamido]bicyclo[1.1.1]pentan-1-yl}-3-ethyl-5-methyl-1,2-oxazole-4-carboxamide] | > 2000 nM |
| Cc1nc(C)c(C(=O)NC23CC(NC(=O)COc4ccc(Cl)c(F)c4)(C2)C3)o1 [Compound 847, N-{3-[2-(4-chloro-3-fluorophenoxy)acetamido]bicyclo[1.1.1]pentan-1-yl}-2,4-dimethyl-1,3-oxazole-5-carboxamide] | 250 to 1000 nM |

| SMILES | EC50 |
| --- | --- |
| Cc1ccc(C(=O)NC23CCC(NC(=O)COc4ccc(Cl)c(F)c4)(CC2)CC3O)nc1 (stereo not shown) [Compound 169, N-{4-[2-(4-chloro-3-fluorophenoxy)acetamido]-2-hydroxybicyclo[2.2.2]octan-1-yl}-5-methylpyridine-2-carboxamide] | 50 to 250 nM |
| O=C(COc1ccc(Cl)c(F)c1)NC12CCC(NC(=O)c3cc(O)no3)(CC1)CC2O (stereo not shown) [Compound 411, N-{4-[2-(4-chloro-3-fluorophenoxy)acetamido]-3-hydroxybicyclo[2.2.2]octan-1-yl}-3-hydroxy-1,2-oxazole-5-carboxamide] | > 2000 nM |
| O=C(COc1ccc(Cl)c(F)c1)NC12CC(NC(=O)c3cc(-c4ccc(Cl)cc4)on3)(C1)C2 [Compound 113, N-{3-[2-(4-chloro-3-fluorophenoxy)acetamido]bicyclo[1.1.1]pentan-1-yl}-5-(4-chlorophenyl)-1,2-oxazole-3-carboxamide] | 50 to 250 nM |
| O=C(COc1ccc(Cl)c(F)c1)NC12CC(Nc3cnccn3)(C1)C2 [Compound 725, 2-(4-chloro-3-fluorophenoxy)-N-{3-[(pyrazin-2-yl)amino]bicyclo[1.1.1]pentan-1-yl}acetamide] | 1000 to 2000 nM |
| O=C(COc1ccc(Cl)c(F)c1)NC12CC(NC(=O)c3ccc(N4CCCC4)cn3)(C1)C2 [Compound 123, N-{3-[2-(4-chloro-3-fluorophenoxy)acetamido]bicyclo[1.1.1]pentan-1-yl}-5-(pyrrolidin-1-yl)pyridine-2-carboxamide] | 250 to 1000 nM |
| Cc1cnccc1C(=O)NC12CC(NC(=O)COc3ccc(Cl)c(F)c3)(C1)C2 [Compound 814, N-{3-[2-(4-chloro-3-fluorophenoxy)acetamido]bicyclo[1.1.1]pentan-1-yl}-3-methylpyridine-4-carboxamide] | > 2000 nM |
| O=C(COc1ccc(Cl)c(F)c1)NC12CC(NC(=O)c3ccc(F)c(F)c3)(C1)C2 [Compound 514, N-{3-[2-(4-chloro-3-fluorophenoxy)acetamido]bicyclo[1.1.1]pentan-1-yl}-3,4-difluorobenzamide] | 50 to 250 nM |
| O=C(COc1ccc2c(c1)OC(F)(F)O2)NC12CC(NC(=O)c3ccc(OC(F)(F)F)cn3)(C1)C2 [Compound 378, N-(3-{2-[(2,2-difluoro-2H-1,3-benzodioxol-5-yl)oxy]acetamido}bicyclo[1.1.1]pentan-1-yl)-5-(trifluoromethoxy)pyridine-2-carboxamide] | < 50 nM |
| CC(=O)Nc1ccc(F)cc1C(=O)NC12CC(NC(=O)COc3ccc(Cl)c(F)c3)(C1)C2 [Compound 765, 2-acetamido-N-{3-[2-(4-chloro-3-fluorophenoxy)acetamido]bicyclo[1.1.1]pentan-1-yl}-5-fluorobenzamide] | 50 to 250 nM |
| O=C(COc1ccc(Cl)c(F)c1)NC12CCC(NC(=O)c3cc(C4CC4)no3)(CC1)C(O)C2 (stereo not shown) [Compound 331, N-{4-[2-(4-chloro-3-fluorophenoxy)acetamido]-2-hydroxybicyclo[2.2.2]octan-1-yl}-3-cyclopropyl-1,2-oxazole-5-carboxamide] | 250 to 1000 nM |
| Cc1cccn2cc(C(=O)NC34CCC(NC(=O)COc5ccc(Cl)c(F)c5)(CC3)C(O)C4)nc12 (stereo not shown) [Compound 599, N-{4-[2-(4-chloro-3-fluorophenoxy)acetamido]-3-hydroxybicyclo[2.2.2]octan-1-yl}-8-methylimidazo[1,2-a]pyridine-2-carboxamide] | 250 to 1000 nM |
| Cn1cc(Cl)c(C(=O)NC23CC(NC(=O)COc4ccc(Cl)c(F)c4)(C2)C3)n1 [Compound 871, 4-chloro-N-{3-[2-(4-chloro-3-fluorophenoxy)acetamido]bicyclo[1.1.1]pentan-1-yl}-1-methyl-1H-pyrazole-3-carboxamide] | 250 to 1000 nM |
| O=C(COc1ccc(Cl)c(F)c1)NC12CCC(NC(=O)c3cncs3)(CC1)C(O)C2 (stereo not shown) [Compound 213, N-{4-[2-(4-chloro-3-fluorophenoxy)acetamido]-2-hydroxybicyclo[2.2.2]octan-1-yl}-1,3-thiazole-5-carboxamide] | 250 to 1000 nM |
| O=C(COc1ccc(Cl)c(F)c1)NC12CCC(NC(=O)c3cc(Cl)no3)(CC1)CC2O (stereo not shown) [Compound 414, 3-chloro-N-{4-[2-(4-chloro-3-fluorophenoxy)acetamido]-3-hydroxybicyclo[2.2.2]octan-1-yl}-1,2-oxazole-5-carboxamide] | 50 to 250 nM |
| O=C(COc1ccc(Cl)c(F)c1)NC12CC(NC(=O)c3cnoc3C3CC3)(C1)C2 [Compound 900, N-{3-[2-(4-chloro-3-fluorophenoxy)acetamido]bicyclo[1.1.1]pentan-1-yl}-5-cyclopropyl-1,2-oxazole-4-carboxamide] | > 2000 nM |
| CCc1ccnc(C(=O)NC23CC(NC(=O)COc4ccc(Cl)c(Cl)c4)(C2)C3)c1 [Compound 696, N-{3-[2-(3,4-dichlorophenoxy)acetamido]bicyclo[1.1.1]pentan-1-yl}-4-ethylpyridine-2-carboxamide] | 50 to 250 nM |
| O=C(COc1ccc(Cl)c(Cl)c1)NC12CC(NC(=O)c3cnc(C4CC4)o3)(C1)C2 [Compound 614, 2-cyclopropyl-N-{3-[2-(3,4-dichlorophenoxy)acetamido]bicyclo[1.1.1]pentan-1-yl}-1,3-oxazole-5-carboxamide] | 50 to 250 nM |
